{"source": "patent US20050031581A1", "about": "“Termite feeding stimulant and method for using same” (priority 2001, published 2005)", "key": {"[1]": {"tested_on": "termites", "details": "ambient atmosphere; cited from earlier work"}, "[2]": {"tested_on": "Coptotermes formosanus Shiraki", "details": "in vivo; cited from earlier work"}, "[3]": {"tested_on": "termites", "details": "extended feeding tests, e.g. greater than 30 days; cited from earlier work"}, "[4]": {"tested_on": "termites", "details": "limited by volatility of the compound; cited from earlier work"}, "[5]": {"tested_on": "Mastotermes darviniensis", "details": "in vivo; cited from earlier work"}, "[6]": {"tested_on": "Coptotermes lacteus", "details": "in vivo; cited from earlier work"}, "[7]": {"tested_on": "termites", "test": "Feeding on bait matrix with chitin synthesis inhibitor added", "format": "in vivo", "details": "added to the bait matrix of the bioassays", "method": "Note that Chitin synthesis inhibitors, such as hexaflumuron, were added to the bait matrix described in the bioassays above resulting in less feeding on the bait matrix treated with hexaflumuron compared to its control. […] Accordingly, it is believed that adding sitosterol to such a bait matrix may provide a way to overcome the termites' aversion to hexaflumuron."}, "[8]": {"tested_on": "Reticulitermes tibialis", "test": "Paper feeding bioassay", "format": "in vivo", "details": "0.60, 2.00 and 5.99 ugm sitosterol/mg paper bait substrate; 100 termites, FIG. 3", "method": "The termites in the tub were allowed to acclimate to their new surroundings for 24 hours before the present feeding bioassay began. Each of three rectangular bait matrixes (each matrix being approximately 100 mg of bait substrate, the substrate being paper) was divided in two halves with a pencil line, each half having a 50.06 mg bait substrate upon which the termites were to feed. For each bait matrix, one half (the “experimental” half) was provided with a given sitosterol dose, and the other half was provided as a control, and accordingly had no sitosterol applied thereto. In particular, for each bait matrix, exactly one of three solutions of sitosterol in acetone (each solution having one of the concentrations: 1 ugm/ul, […], or 10 ugm/ul) was applied to the “experimental” half of the bait matrix with a Hamilton syringe (of 100 ul capacity), and only acetone was applied to the other (control) half as a control. More precisely, the experimental half of each bait matrix rectangle was evenly wetted with 30 ul of a different one of the solutions of sitosterol, thus applying on the experimental bait matrix half of each bait matrix a dose of only one of 30 ugm, 100 ugm or 300 ugm of sitosterol. The sitosterol concentrations tested were therefore 0.60, 2.00, and 5.99 ugm sitosterol/mg of bait substrate. […]"}, "[9]": {"tested_on": "Reticulitermes tibialis", "test": "Cellulose TLC plate feeding bioassay", "format": "in vivo", "details": "every dose tested: 30, 100 and 300 ugm per cellulose square; 100 termites, up to 7 days, FIG. 2", "method": "Such behavioral feeding bioassays were conducted using the following protocol.\n(§1) Termite workers (100 total) were removed from their storage tubs and placed in a smaller plastic Rubbermaid® tub (having a volume of 414 ml) that contained soil (with a 20% by weight moisture). These termites were allowed to acclimate to their new surroundings for 24 hours before the feeding bioassay began. Solutions of sitosterol in acetone (of 1.0 ugm/ul, […], or 10 ugm/ul, respectively) were applied to three different cellulose squares with a Hamilton syringe (of 100 micro-liters (ul) capacity), wherein the squares were provided on a single thin-layer chromatography (TLC) glass plate. For the three cellulose squares, each single cellulose square (of 13.43 mg of cellulose) was evenly wetted with 30 ul of only one of the solutions. Thus, a dose of one of 30 ugm, 100 ugm or 300 ugm of sitosterol was applied, respectively, to a corresponding one of the cellulose squares. Accordingly, the concentrations on these three cellulose squares were, respectively, 2.23 ugm sitosterol/mg cellulose (equivalently, […] sitosterol to cellulose), 7.45 ugm sitosterol/milligram (mg) cellulose (equivalently, 0.745% sitosterol to cellulose), and 22.34 ugm sitosterol/mg cellulose (equivalently, 2.23% sitosterol to cellulose). Note that a fourth cellulose square was treated with 30 ul of acetone as a control. […]"}, "[10]": {"tested_on": "Coptotermes formosanus", "test": "Cellulose TLC plate feeding bioassay", "format": "in vivo", "details": "2.23, 7.45 and 22.34 ugm sitosterol/mg cellulose, FIG. 4", "method": "as §1"}, "[11]": {"tested_on": "Reticulitermes tibialis", "test": "Field test of sitosterol cellulose pellets in underground termite jar traps", "format": "in vivo", "details": "pellet 1% sitosterol and 99% cellulose, 15 jar traps in the field, FIG. 1", "method": "Sitosterol was tested in the field as a feeding stimulant for Reticulitermes tibialis. Sitosterol (300 mg) was dissolved in 30 ml of acetone and added to 30 gm of cellulose powder (from Bio-Serv Inc., Frenchtown, N.J.), and the combination was dried overnight. A hydraulic press (providing 15,000 pounds per square inch force) was used to make hard pellets (wherein each pellet was approximately 3 gm, 2.5 cm diameter, 5 mm thickness, having 1% sitosterol and 99% cellulose). Control pellets of cellulose powder alone (3 gm) were made similarly.\nThe pellets were tested in underground termite traps made from Nalgene jars (having dimensions of approximately 10 cm diameter, 10 cm height) with 3 mm holes drilled at 3 cm intervals to allow termites to enter each jar. The jar traps were filled with soil (20% moisture). Two pellets were placed on the surface of the soil both within and at the top of each jar trap, one pellet containing cellulose (3 gm) plus sitosterol […] and the other pellet containing only cellulose (3 gm).\nOne of the jar traps containing a 1% sitosterol pellet and a cellulose control pellet was placed at the base of a fence post that was previously determined to be infested with termites. The traps were checked once a week for feeding. When termite feeding was apparent, both pellets were removed and weighed to determine the amount of each pellet that had been eaten. […]"}, "[12]": {"test": "Physical properties of sitosterol", "format": "physicochemical", "description": "(§2) Several aspects of sitosterol make it a promising compound for enhancing Coptotermes formosanus, and Reticulitermes tibialis control. […] Termite baits are most frequently placed in the soil where moisture conditions are a factor; i.e., soil having at least 20% moisture, and/or occasionally saturated with water. […] Sitosterol has little toxic risk, and it has been tested in humans as an alternative method to lower plasma cholesterol levels. Sitosterol is an economically rational additive to a termite bait system. For example, the cost of the sitosterol needed to treat one termite bait roll of the size and proportion of paper (e.g., 10 cm by 100 cm) is about one cent to reach the concentration of our highest tested dose (300 ugm)."}, "[13]": {"tested_on": "termites", "test": "Toxic effects of sitosterol to termites", "details": "in vivo", "description": "as §2"}}}
{"smiles": "O=C=O", "note": "[CO2, carbon dioxide]", "values": [{"measurement": "CO2 concentration attractive to termites", "setting": "[1]", "value": "at least 0.2 % by volume"}]}
{"smiles": "N[C@H](CC(=O)O)C(=O)O", "note": "[D-aspartic acid]", "values": [{"measurement": "feeding compared with a water control", "setting": "[2]", "value": "fed upon more than a water control"}, {"measurement": "toxicity to termites", "setting": "[3]", "value": "has shown toxicity to termites"}]}
{"smiles": "Oc1ccc(O)cc1", "note": "[Hydroquinone]", "values": [{"measurement": "duration of phagostimulatory effects", "setting": "[4]", "value": "one month"}, {"measurement": "feeding stimulation", "setting": "[5]", "value": "stimulated feeding"}, {"measurement": "feeding stimulation", "setting": "[6]", "value": "stimulated feeding"}]}
{"smiles": "N[C@@H](CCC(=O)O)C(=O)O", "note": "[L-glutamic acid]", "values": [{"measurement": "feeding compared with a water control", "setting": "[2]", "value": "fed upon more than a water control"}]}
{"smiles": "O=C(NC(=O)c1c(F)cccc1F)Nc1cc(Cl)c(OC(F)(F)C(F)F)c(Cl)c1", "note": "[hexaflumuron]", "values": [{"measurement": "feeding on treated bait matrix compared to its control", "setting": "[7]", "value": "less feeding"}]}
{"smiles": "CC[C@H](CC[C@@H](C)[C@H]1CC[C@H]2[C@@H]3CC=C4C[C@@H](O)CC[C@]4(C)[C@H]3CC[C@]12C)C(C)C", "note": "[sitosterol]", "values": [{"measurement": "area of bait matrix half consumed versus control side", "setting": "[8]", "value": "consumed substantially more than the control side"}, {"measurement": "feeding on cellulose treated with sitosterol versus control square", "setting": "[9]", "value": "fed significantly more"}, {"measurement": "feeding on cellulose squares having sitosterol versus control square", "setting": "[10]", "value": "ate substantially more"}, {"measurement": "amount of pellet eaten by the termites versus cellulose control pellet", "setting": "[11]", "value": "more than twice as much"}, {"measurement": "stability and volatility", "setting": "[12]", "value": "stable, nonvolatile"}, {"measurement": "hydrophobicity", "setting": "[12]; soil moisture/water", "value": "hydrophobic compound which resists being washed off"}, {"measurement": "toxic effects to termites", "setting": "[13]", "value": "no toxic effects"}]}
